US20260263415A1, “Sulfonamides With Activity in Acute Kidney Injury and Fibrosis” (University of Pittsburgh - Of the Commonwealth System of …, priority 2023, published 2026)

System: Zebrafish larvae injected with gentamicin
Test: Zebrafish gentamicin kidney injury survival assay
Format: in vivo
Experimental: Potential efficacy was tested in zebrafish assays, essentially as follows. Zebrafish were maintained as described (see, e.g., Cianciolo Cosentino, C., et al. (2013) Histone deacetylase inhibitor enhances recovery after AKI. J Am Soc Nephrol, 24 (6), 943-53 and Skrypnyk, N. I., et al. (2016) Delayed treatment with PTBA analogs reduces postinjury renal fibrosis after kidney injury. Am J Physiol Renal Physiol, 310 (8), F705-F716), and embryos from Pitt AB wildtype were used. Zebrafish larvae were injected with a single dose of gentamicin at 3 dpf with 7 ng of gentamicin as previously described. Prior to the gentamicin injection, 3 dpf zebrafish larvae were anesthetized in 0.2% tricaine/E3 medium (5 mM NaCl, 0.33 mM CaCl2), 0.33 mM MgSO4, and 0.17 mM KCl). Glass capillaries were pulled to produce microneedles and were aspirated with […] of 7 ng/nL gentamicin solution diluted with filtered saline solution (Aspen Veterinary Resources, Cat No. 17861615). The larvae were injected with 1 nL gentamicin solution, delivered via the common cardinal vein. After injection, larvae were incubated in 50 μg/mL penicillin/streptomycin diluted in E3 medium. […]
Data were analyzed as compounds that extend survival as measured by Kaplan-Meier estimator.
Table A provides preliminary calculated hazard ratios (n=1) for tested compounds (see also FIGS. 3A and 3B). […]

COC(=O)CCCSc1ccccc1 [UPHD 25]
larval survival compared to the injured, untreated control (4 μM from 2 days post-injection, days 5-11 post-fertilization): increase larval survival | survival as measured by Kaplan-Meier estimator (positive control, all survival assays): statistically significant
